This passage reports TGI and GI50 results from PubChem BioAssay (NCI).

Molecules are shown by their SMILES.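 Protocol summary: plate cells (96-well), add compound at 5 concentrations, incubate 48 h, interpolate endpoints linearly. The concentration for 50% growth inhibition is given as GI50. At the TGI there is no net growth.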

Some test systems named below: CAKI-1 renal; K-562 leukemia; NCI-H460 lung; OVCAR-3 ovarian; OVCAR-8 ovarian; SK-OV-3 ovarian; UACC-257 melanoma.
Test in all cases: DTP human tumour cell line panel, 48 h

On to `Cn1cc(-c2ccc3c4ccccc4n(C)c3c2)c2ccccc21`, for which the TGI in the assay on CAKI-1 renal, with K-562 leukemia, in the assay with NCI-H460 lung, in the assay with OVCAR-3 ovarian, in the assay on OVCAR-8 ovarian and in the assay with SK-OV-3 ovarian was more than 100 µM in each case. This compound registered a total growth inhibition concentration (TGI) in the assay on UACC-257 melanoma of more than 100 µM.
For the compound `N.N.N.N.N#N.N#N.[Cl-].[Os+6]`, the GI50 in the assay on CAKI-1 renal, in the assay with NCI-H460 lung, in the assay on OVCAR-3 ovarian and in the assay on OVCAR-8 ovarian was more than 100 µM throughout. The TGI in the assay with CAKI-1 renal, with NCI-H460 lung, in the assay on OVCAR-3 ovarian and in the assay on OVCAR-8 ovarian was more than 100 µM each time.
Consider `S=C1SCC2CCCN12` (stereo unspecified), for which the TGI with CAKI-1 renal, in the assay with K-562 leukemia, with NCI-H460 lung, in the assay on OVCAR-8 ovarian, in the assay with SK-OV-3 ovarian and in the assay with UACC-257 melanoma was more than 100 µM in each case.
Regarding `Cc1cccc(NC(=O)c2c(N)[n+]([O-])c3ccccc3[n+]2[O-])c1`, the TGI with CAKI-1 renal was 27.4 µM; in the assay on K-562 leukemia, more than 100 µM; with NCI-H460 lung it was 28.1 µM; with OVCAR-3 ovarian, 29.1 µM; with OVCAR-8 ovarian, 32.3 µM; in the assay with SK-OV-3 ovarian, 63 µM. In the assay on UACC-257 melanoma, this compound registered a TGI of 24.4 µM.
As to `Cc1cc(NS(=O)(=O)c2ccc(NC(=O)c3ccc(Cl)c4c(Nc5ccc(S(=O)(=O)Nc6cc(C)on6)cc5)c5ccccc5nc34)cc2)no1`, the TGI in the assay with CAKI-1 renal is 30.6 µM; in the assay with K-562 leukemia, 64.3 µM; with NCI-H460 lung, 53.9 µM; in the assay on OVCAR-3 ovarian, 33.4 µM; in the assay on OVCAR-8 ovarian, more than 100 µM; in the assay on SK-OV-3 ovarian, 42.2 µM. For the same compound, in the assay with UACC-257 melanoma, the TGI was determined as 43.5 µM.
Turning to `O=C(n1c2ccccc2c2n[nH]c(=S)nc21)C(F)(F)F`, the TGI with CAKI-1 renal, with K-562 leukemia, in the assay on NCI-H460 lung, in the assay with OVCAR-3 ovarian, in the assay with OVCAR-8 ovarian and in the assay with SK-OV-3 ovarian was more than 100 µM in each case.
Take `CCCCC[C@@H]1CCCC2NC(CCCCCO[Si](c3ccccc3)(c3ccccc3)C(C)(C)C)CCC21` (stereo partly specified): the total growth inhibition concentration (TGI) in the assay with CAKI-1 renal was 29 µM; in the assay on K-562 leukemia, 20.9 µM; in the assay on NCI-H460 lung, 31.7 µM; with OVCAR-3 ovarian it was 30.7 µM; in the assay on OVCAR-8 ovarian, 32.7 µM; with SK-OV-3 ovarian it was 36.8 µM. The TGI in the assay on UACC-257 melanoma is 29 µM.
Consider `CCOC(=O)c1ccc(N=Cc2ccc(N(CCC#N)S(=O)(=O)c3ccccc3)cc2C)cc1`, for which the TGI in the assay on CAKI-1 renal, with K-562 leukemia, in the assay with OVCAR-3 ovarian, in the assay on OVCAR-8 ovarian, with SK-OV-3 ovarian and in the assay with UACC-257 melanoma was more than 100 µM in each case.
In the case of `COc1ccc2c(c1OC)C(=O)C2`, the total growth inhibition concentration (TGI) with NCI-H460 lung, with OVCAR-8 ovarian, in the assay on SK-OV-3 ovarian and in the assay with UACC-257 melanoma was more than 100 µM throughout.
Consider `CC(=O)/C=C1\CC(=O)N(C)c2ccccc2N1`, for which the TGI in the assay with CAKI-1 renal, in the assay on K-562 leukemia, in the assay with NCI-H460 lung, in the assay on OVCAR-3 ovarian, with OVCAR-8 ovarian and in the assay on SK-OV-3 ovarian was more than 100 µM each time.
For the compound `CN(C)CCCNc1ccnc2c([N+](=O)[O-])cccc12`, the TGI is more than 100 µM with CAKI-1 renal; 39.2 µM with NCI-H460 lung; more than 100 µM with OVCAR-3 ovarian; 61.6 µM with OVCAR-8 ovarian; 30.9 µM in the assay with UACC-257 melanoma.
Turning to `C=CC[P@]1(=O)O[C@H](c2ccccc2)C(C)N1C(C)C` (stereo partly specified), the TGI with K-562 leukemia, with NCI-H460 lung, in the assay with OVCAR-3 ovarian, with OVCAR-8 ovarian, in the assay with SK-OV-3 ovarian and in the assay with UACC-257 melanoma was more than 100 µM throughout.
As for `CC(C)(C)C1=CC(=N/N=c2\scc(-c3ccccc3)n2Cc2ccccc2)C=C(C(C)(C)C)C1=O`, the TGI with CAKI-1 renal, in the assay with K-562 leukemia, in the assay on NCI-H460 lung, in the assay with OVCAR-3 ovarian, in the assay on OVCAR-8 ovarian and in the assay with UACC-257 melanoma was more than 100 µM each time.
On to `COC1CCCc2c(OC(C)=O)ccc(OC(C)=O)c21` (stereo unspecified), for which the concentration for total growth inhibition (TGI) in the assay on CAKI-1 renal, in the assay with K-562 leukemia, with OVCAR-3 ovarian and with SK-OV-3 ovarian was more than 100 µM each time.
Regarding `Cc1nc2ccccc2c(=O)n1/N=C(\N=Nc1ccc(Cl)cc1)c1cccc(-c2ccco2)c1`, the TGI in the assay with CAKI-1 renal was 98.4 µM; in the assay with K-562 leukemia, more than 100 µM; in the assay on NCI-H460 lung, more than 100 µM; in the assay with OVCAR-8 ovarian, more than 100 µM; in the assay with SK-OV-3 ovarian, more than 100 µM.
With `Cc1c(C)c2cc3c(=O)c(CCl)coc3c(C)c2oc1=O`, the TGI in the assay with K-562 leukemia, in the assay on NCI-H460 lung, in the assay with OVCAR-3 ovarian, with OVCAR-8 ovarian, in the assay with SK-OV-3 ovarian and with UACC-257 melanoma was more than 100 µM in each case.
In the case of `O=C(c1ccccc1)c1nc2c(Cl)ccc(Cl)c2cc1C(Br)Br`, the TGI in the assay on CAKI-1 renal was 3.51 µM; in the assay with K-562 leukemia, 1.77 µM; in the assay with OVCAR-3 ovarian, 3.15 µM; with OVCAR-8 ovarian, 7.59 µM; with UACC-257 melanoma it was 1.54 µM.

What is called TGI is the concentration at which net growth stops. A lower TGI goes with greater sensitivity of the cells. By GI50 is commonly meant the concentration that inhibits growth by half.
